According to US5906922A, “Delivery of nucleic acids” (Commonwealth Scientific and Industrial Research Organisation, priority 1994, dated 1999):
Read-outs that look alike come from different tables or passages of the source. Where a SMILES comes first, the peptide text is derived from it. The star is where a group is joined. NHC(CH2OLauroyl)3 = CCCCCCCCCCCC(=O)OCC(COC(=O)CCCCCCCCCCC)(COC(=O)CCCCCCCCCCC)N*

What was measured:
cells [1] = assay: β-gal plate assay of unformulated mixtures of lipopeptides; type: cell-based; settings: previously determined
Method: The optimal level of transfection achieved using the compound K3ATL3 had been previously determined as requiring ^- 5 μM K3ATL3. K3ATL3 was mixed with each of K3ATL1, K3ATL2, K3ATM3, K3ATP3 and K3ATC3 to give a total concentration of lipid of 5 μM in 100 μl at ratios of 0:5, 1:4, 2:3, 3:2, 4:1 and 5:0. K3ATM3 was similarly mixed with K3ATM1, K3ATM2 and K3ATP3. Each of the lipid mixtures was combined with a constant amount of pSVGAL DNA 0.5 μg/well and transfection allowed to proceed normally.
This was further tested by making a 4:1 molar mix of the two lipopeptides K3ATL3 and K3ATM3 and testing them in a standard plate assay which involved doubling dilutions of both the lipopeptide and DNA concentration. This was compared to expression achieved with using the pure compound K3ATL3 under the same conditions.

CHO cells [2] = assay: β-gal microtitre plate transfection assay, CHO; type: cell-based, Chinese Hamster; settings: Table 3, CHO
From the text: For experiment "c", a plasmid pPGKlaczNLS encoding β-galactosidase under the control of the mouse PGK promoter (kind gift from G.Hannan) or pSVGAL which utilises the SV40 early promoter (Sleigh, M. J. and Lockett, T. J. (1985). EMBO J. 4:3831-3837),was transfected. This experiment and assay were modified from Feigner et al J. Biol Chem. 269(4) 2550-2561 1994. This protocol allows the simultaneous assessment of 72 different combinations and concentrations of DNA and test agent in a microtitre tray. […] Cytotoxicity was assessed using alamar blue, and a sample graph is shown for experiment a.
Each of these compounds was tested for transfection ability and cytotoxicity on standard cell lines using standard conditions as described above.
(§1) The ratio of [lipid]/[DNA] at which that maximum was achieved is shown in brackets for the two different cell types in the following order; (Cos 1) (CHO). Experiments shown were carried out in Cos 1 cells, as described above. Viability was measured with the dye alamar blue . # Denotes compounds tested in a separate experiment. * Viability in this experiment was determined with MTS. OD is a measure of relative viability of the cells exposed to the different agents, and as with alamar blue, a higher value indicates greater cell viability.

Cos 1 cells [3] = type: cell-based, African Green Monkey
Summary of the method: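 Cytotoxicity of transfection agents (lipid/DNA combinations, β-galactosidase plasmid under PGK or SV40 early promoter) assessed in parallel with transfection. Viability read with alamar blue or, in some runs, MTS OD; higher signal means greater relative viability.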

Hela cells [4] = assay: β-gal plate transfection assay, Hela; type: cell-based, Human; settings: 48 hours
Method: (§4) Hela cells were seeded in place of Cosl or CHO cells in DME+10% FCS at a density of 2×10^4 /well and transfected with pPGKlaczNLS as described above. At 48 hours, toxicity was determined by alamar blue and the cells processed for the β-gal assay.

leg muscle = assay: In vivo transfection (pGFP-N1, intramuscular); parameters: species or system hairless mouse; settings: 10 μg pGFP-N1, 24 hours
Method: The plasmid pGFP-N1 (Clontech) encoding the Green Fluorescent Protein, was diluted 10 μg (in 10 μl) into 20 μl 5% dextrose in water and then combined with 2.1 μl of 10 mM K3ATL3 (10% DMSO) in 27.9 μl of 5% dextrose in water. After 10 min incubation at room temperature the mixture was injected into the leg muscle of a hairless mouse. The mouse was sacrificed after 24 hours and the muscle snap frozen on dry ice. Frozen sections of the tissue were made and analysed under the confocal microscope for fluorescence.

Cos 1 cells [5] = type: cell-based, African Green Monkey; remark: listed apart in the source
Summary of the method: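 Relative viability of Cos 1 cells exposed to lipid/DNA agents was read as MTS optical density; higher OD means greater viability. Some points came from separate experiments.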

CHO cells [6] = type: cell-based, Chinese Hamster
Method: (LEGEND--FIGS. 7, 8 and 9; none; no agent used with plasmid DNA, rb/blank; reagent blank, number following description of compound indicates no. μl of 2 mM stock (diluted with water). 7b: 100% cell survival was taken from dishes which were "mock transfected" with no DNA or transfection agent. 0% viability was assayed in the absence of cells. Viability was assessed using the dye alamar blue.)
Relative levels of cytotoxicity caused by the different agents were compared during the experiment using the dye "Alamar Blue" (Alamar, Sacramento Calif.).
as §1

in vitro = type: cell-based, Chinese Hamster; settings: hamster, cho cells
Method: (§2) An 18-mer 5'-fluoresceinated phosphorothioate oligonucleotide was transfected into CHO cells. A comparison was made between the ability of K3C7ATL3, K3ATL3 and no-agent, to transfect the oligonucleotide into the cells. The oligonucleotide was serially diluted from 121.2 μM nucleotide, to 60.6 and 30.3 μM nucleotide. The test lipopeptides were serially diluted from 84 μM , to 42 and 21 μM. These dilutions were combined in a 3×3 matrix resulting in concentrations half that described. That is, the top dilution of oligonucleotide became 60.6 μM nucleotide (3.37 μM 18-mer oligonucleotide) and lipopeptide 42 μM. The mix was allowed to incubate for 10 min at room temperature and then overlayed on CHO cells (seeded at 1×10^4 /well the previous day). washed free of serum with DDME, in a total volume of 100 μl. Wells receiving mix with no test agent had the three different concentrations of oligonucleotide overlayed under the same conditions.
(§3) After 3 hours of incubation under standard conditions of 37° C. and 5% CO2, the mix was removed and replaced with 50 μl of DDME. The cells were viewed live under the confocal microscope. The level of fluorescence was so high that the pinhole aperture for the LASER on the BioRad MRC 500 confocal microscope, was shut down to minimum. All images were then collected on the same settings for a quantitative comparison.

cells [7] = assay: β-gal reporter transfection, "y" linker non-standard amino acids; type: cell-based; settings: K3 "y" TL3 compounds
Method: Peptide/fatty acyl conjugates were synthesized using the non-standard amino acids amino butyric (C3), amino caproic (C5) and amino caprylic (C7) acids as the linker groups, a tri-lysine nucleic acid binding domain and laurate for the three fatty acyl groups. In these new conjugates the DNA binding and tris/fatty acyl moieties were separated by an extra 3, 5 and 7 carbon bond lengths respectively when compared with the prototype molecule. These compounds were then tested in the standard manner described above to determine their relative capacity to transfect cells.
K3 "y" TL3 compounds, where y=C3, C5, C7, A, L, G were compared for transfection efficiency to each other and the commercial agent Lipofectamine using the standard β-gal reporter gene system described above.

Cos 1 cells [8] = assay: β-gal microtitre plate transfection assay, Cos 1; type: cell-based, African Green Monkey
Summary of the method: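 Cos 1 cells were transfected with β-galactosidase plasmids (mouse PGK or SV40 early promoter) across varied lipid/DNA ratios in microtitre format. The lipid/DNA ratio giving maximal expression was recorded. Viability was measured with alamar blue or MTS, where higher OD means greater viability.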

CHO cells [9] = assay: Oligonucleotide transfection (18-mer fluoresceinated phosphorothioate), CHO; type: cell-based, Chinese Hamster; settings: 3 hours
Method: as §2, §3
After confocal analysis, 100 μl of EMEM+10% FCS was added back to the wells and cells were incubated under standard conditions overnight. Cells were re-examined for fluorescence.

Hela cells [10] = tested on: Hela cells
Method: as §4

CCCCCCCCCCCC(=O)OCC(COC(=O)CCCCCCCCCCC)(COC(=O)CCCCCCCCCCC)NC(=O)[C@H](C)NC(=O)[C@H](CCCCN)NC(=O)[C@H](CCCCN)NC(=O)[C@@H](N)CCCCN [K3ATL3] (H-KKKA-{NHC(CH2OLauroyl)3})
concentration required for optimal transfection (cells [1]): ~5 µM
ratio [lipid]/[DNA] at which maximum was achieved (CHO cells [2]): .69
β-gal (CHO) (CHO cells [2]; highest reading of 72 conditions): 7.89 × 10^-4
Viability (Cos 1) (Cos 1 cells [3]): 0.095
transfection ability, chain length C10 to C16 (Hela cells [4]): peak transfection efficiency at C12
GFP fluorescence in motor end-plates (leg muscle): very strong fluorescence was seen in the motor end-plates
GFP fluorescence in muscle cells (leg muscle): Punctate fluorescence was observed in the cytoplasm of muscle cells
MTS OD490-655 (Cos 1 cells [5]): 1.363
Viability (Cos 1) (Cos 1 cells [5]): 1.36
Viability (CHO) (CHO cells [6]): 0.027
cytotoxicity at 3 h, 42 µM (in vitro): > 90%
transfection efficiency compared to Lipofectamine (cells [7]): more efficient at transfection than Lipofectamine
transfection, linkers A, L and G compared (Cos 1 cells [8]; "y" linker experiment c, Cos 1, trilysine trilaurate): superior in achieving transfection
ratio [lipid]/[DNA] at which maximum was achieved (Cos 1 cells [8]; Table 2, Cos 1): 1.39
units β-gal (Cos 1 cells [8]; Table 2, Cos 1, highest reading of 72 conditions): 4.95 × 10^-4 units
β-gal (Cos 1) (Cos 1 cells [8]; Table 3, Cos 1, # tested in a separate experiment): 4.95 × 10^-4
β-gal (Cos 1) (Cos 1 cells [8]; Table 3, Cos 1, highest reading of 72 conditions): 3.02 × 10^-4
% cells fluorescing (CHO cells [9]; [nucleotide] 15.15 μM, [test agent] 10.5 μM): 100%
% cells fluorescing (CHO cells [9]; [nucleotide] 15.15 μM, [test agent] 21 μM): 100%
% cells fluorescing (CHO cells [9]; [nucleotide] 15.15 μM, [test agent] 42 μM): 100%
% cells fluorescing (CHO cells [9]; [nucleotide] 30.3 μM, [test agent] 10.5 μM, *less strongly fluorescing for K3ATL3): 100%
% cells fluorescing (CHO cells [9]; [nucleotide] 30.3 μM, [test agent] 21 μM): 100%
% cells fluorescing (CHO cells [9]; [nucleotide] 30.3 μM, [test agent] 42 μM): 100%
% cells fluorescing (CHO cells [9]; [nucleotide] 60.6 μM, [test agent] 10.5 μM, *less strongly fluorescing for K3ATL3): 100%
% cells fluorescing (CHO cells [9]; [nucleotide] 60.6 μM, [test agent] 21 μM): 100%
% cells fluorescing (CHO cells [9]; [nucleotide] 60.6 μM, [test agent] 42 μM): 100%
cell viability (Hela cells [10]): peak level of cell viability
